ChEMBL document CHEMBL4411307, “N,N'-diaryl-bishydrazones in a biphenyl platform: Broad spectrum antifungal agents” (Eur J Med Chem, 2019)
In brackets after ≈: the same amount, converted by molar mass. Activity calls are given as the source filed them. No cut-off for these calls is given here.

Experiments:
[1] = system: Listeria monocytogenes; assay: Antibacterial activity against Listeria monocytogenes; type: functional, organism-based
[2] = system: Staphylococcus aureus; assay: Antibacterial activity against methicillin-resistant Staphylococcus aureus; type: functional, organism-based
[3] = system: Enterococcus; assay: Antibacterial activity against vancomycin-resistant Enterococcus; type: functional, organism-based
[4] = system: Candida albicans; assay: Antifungal activity against fluconazole/ITC-resistant Candida albicans ATCC 10231 measured after 48 hrs by CLSI M27-A3 protocol based method; type: functional; details: ATCC 10231, 48 h
[5] = system: Candida albicans; assay: Antifungal activity against fluconazole/ITC-resistant Candida albicans ATCC 64124 measured after 48 hrs by CLSI M27-A3 protocol based method; type: functional; details: ATCC 64124, 48 h
[6] = system: Candida albicans; assay: Antifungal activity against fluconazole/ITC-susceptible Candida albicans ATCC MYA-2876 measured after 48 hrs by CLSI M27-A3 protocol based method; type: functional; details: ATCC MYA-2876, 48 h
[7] = system: Candida albicans; assay: Antifungal activity against fluconazole/ITC-resistant Candida albicans ATCC 90819 measured after 48 hrs by CLSI M27-A3 protocol based method; type: functional; details: ATCC 90819, 48 h
[8] = system: Candida albicans; assay: Antifungal activity against fluconazole/ITC-susceptible Candida albicans ATCC MYA-2310 measured after 48 hrs by CLSI M27-A3 protocol based method; type: functional; details: ATCC MYA-2310, 48 h
[9] = system: Candida albicans; assay: Antifungal activity against fluconazole/ITC-resistant Candida albicans ATCC MYA-1237 measured after 48 hrs by CLSI M27-A3 protocol based method; type: functional; details: ATCC MYA-1237, 48 h
[10] = system: Candida albicans; assay: Antifungal activity against fluconazole/ITC-resistant Candida albicans ATCC MYA-1003 measured after 48 hrs by CLSI M27-A3 protocol based method; type: functional; details: ATCC MYA-1003, 48 h
[11] = system: Nakaseomyces glabratus; assay: Antifungal activity against Candida glabrata ATCC 2001 measured after 48 hrs by CLSI M27-A3 protocol based method; type: functional; details: CBS 138, 48 h
[12] = system: Pichia kudriavzevii; assay: Antifungal activity against Candida krusei ATCC 6258 measured after 48 hrs by CLSI M27-A3 protocol based method; type: functional; details: ATCC 6258, 48 h
[13] = system: Candida parapsilosis; assay: Antifungal activity against Candida parapsilosis ATCC 22019 measured after 48 hrs by CLSI M27-A3 protocol based method; type: functional; details: Lodderomyces parapsilosis, ATCC 22019, 48 h
[14] = system: Aspergillus flavus; assay: Antifungal activity against Aspergillus flavus ATCC MYA-3631 measured after 48 hrs by CLSI M38-A2 protocol based method; type: functional; details: ATCC MYA-3631, 48 h
[15] = system: Aspergillus nidulans; assay: Antifungal activity against Aspergillus nidulans ATCC 38163 measured after 48 hrs by CLSI M38-A2 protocol based method; type: functional; details: ATCC 38163, 48 h
[16] = system: Aspergillus terreus; assay: Antifungal activity against Aspergillus terreus ATCC MYA-3633 measured after 48 hrs by CLSI M38-A2 protocol based method; type: functional; details: ATCC MYA-3633, 48 h
[17] = system: A549; assay: Cytotoxicity against human A549 cells after 24 hrs by resazurin based assay; type: cell-based; details: a549, 24 h
[18] = system: BEAS-2B; assay: Cytotoxicity against human BEAS2B cells after 24 hrs by resazurin based assay; type: cell-based
[19] = Selectivity index, ratio of CC50 for human A549 cells to MIC for fluconazole/ITC-resistant Candida albicans ATCC 10231; type: toxicity; details: read-out: Selectivity Index
[20] = Selectivity index, ratio of CC50 for human A549 cells to MIC for fluconazole/ITC-resistant Candida albicans ATCC 64124; type: toxicity; details: read-out: Selectivity Index
[21] = Selectivity index, ratio of CC50 for human A549 cells to MIC for fluconazole/ITC-susceptible Candida albicans ATCC MYA-2876; type: toxicity; details: read-out: Selectivity Index
[22] = Selectivity index, ratio of CC50 for human A549 cells to MIC for fluconazole/ITC-resistant Candida albicans ATCC 90819; type: toxicity; details: read-out: Selectivity Index
[23] = Selectivity index, ratio of CC50 for human A549 cells to MIC for fluconazole/ITC-susceptible Candida albicans ATCC MYA-2310; type: toxicity; details: read-out: Selectivity Index
[24] = Selectivity index, ratio of CC50 for human A549 cells to MIC for fluconazole/ITC-resistant Candida albicans ATCC MYA-1237; type: toxicity; details: read-out: Selectivity Index
[25] = Selectivity index, ratio of CC50 for human A549 cells to MIC for fluconazole/ITC-resistant Candida albicans ATCC MYA-1003; type: toxicity; details: read-out: Selectivity Index
[26] = Selectivity index, ratio of CC50 for human A549 cells to MIC for Candida glabrata ATCC 2001; type: toxicity; details: read-out: Selectivity Index
[27] = Selectivity index, ratio of CC50 for human A549 cells to MIC for Candida krusei ATCC 6258; type: toxicity; details: read-out: Selectivity Index
[28] = Selectivity index, ratio of CC50 for human A549 cells to MIC for Candida parapsilosis ATCC 22019; type: toxicity; details: read-out: Selectivity Index
[29] = Selectivity index, ratio of CC50 for human A549 cells to MIC for Aspergillus flavus ATCC MYA-3631; type: toxicity; details: read-out: Selectivity Index
[30] = Selectivity index, ratio of CC50 for human A549 cells to MIC for Aspergillus nidulans ATCC 38163; type: toxicity; details: read-out: Selectivity Index
[31] = Selectivity index, ratio of CC50 for human A549 cells to MIC for Aspergillus terreus ATCC MYA-3633; type: toxicity; details: read-out: Selectivity Index
[32] = Hemolytic activity in mouse RBC at […] after 1 hr relative to control; type: ADME, cell-based, Erythrocyte; details: red blood cells (erythrocytes), read-out: Activity; note: tested at 0.48 µg/mL
[33] = Hemolytic activity in mouse RBC at […] ug/ml after 1 hr relative to control; type: ADME, cell-based, Erythrocyte; details: red blood cells (erythrocytes), read-out: Activity
[34] = Hemolytic activity in mouse RBC at 1.95 ug/ml after 1 hr relative to control; type: ADME, cell-based, Erythrocyte; details: red blood cells (erythrocytes), read-out: Activity
[35] = Hemolytic activity in mouse RBC at 3.9 ug/ml after 1 hr relative to control; type: ADME, cell-based, Erythrocyte; details: red blood cells (erythrocytes), read-out: Activity
[36] = Hemolytic activity in mouse RBC at 7.8 ug/ml after 1 hr relative to control; type: ADME, cell-based, Erythrocyte; details: red blood cells (erythrocytes), read-out: Activity
[37] = Hemolytic activity in mouse RBC at 31.3 ug/ml after 1 hr relative to control; type: ADME, cell-based, Erythrocyte; details: red blood cells (erythrocytes), read-out: Activity
[38] = Hemolytic activity in mouse RBC at 62.5 ug/ml after 1 hr relative to control; type: ADME, cell-based, Erythrocyte; details: red blood cells (erythrocytes), read-out: Activity
[39] = Selectivity index, ratio of compound concentration showing <25% hemolysis in mouse RBC to MIC for fluconazole/ITC-resistant Candida albicans ATCC 10231; type: toxicity; details: mouse red blood cells (RBC), read-out: Selectivity Index
[40] = Selectivity index, ratio of compound concentration showing <25% hemolysis in mouse RBC to MIC for fluconazole/ITC-resistant Candida albicans ATCC 64124; type: toxicity; details: mouse red blood cells (RBC), read-out: Selectivity Index
[41] = Selectivity index, ratio of compound concentration showing <25% hemolysis in mouse RBC to MIC for fluconazole/ITC-susceptible Candida albicans ATCC MYA-2876; type: toxicity; details: mouse red blood cells (RBC), read-out: Selectivity Index
[42] = Selectivity index, ratio of compound concentration showing <25% hemolysis in mouse RBC to MIC for fluconazole/ITC-resistant Candida albicans ATCC 90819; type: toxicity; details: mouse red blood cells (RBC), read-out: Selectivity Index
[43] = Selectivity index, ratio of compound concentration showing <25% hemolysis in mouse RBC to MIC for fluconazole/ITC-susceptible Candida albicans ATCC MYA-2310; type: toxicity; details: mouse red blood cells (RBC), read-out: Selectivity Index
[44] = Selectivity index, ratio of compound concentration showing <25% hemolysis in mouse RBC to MIC for fluconazole/ITC-resistant Candida albicans ATCC MYA-1237; type: toxicity; details: mouse red blood cells (RBC), read-out: Selectivity Index
[45] = Selectivity index, ratio of compound concentration showing <25% hemolysis in mouse RBC to MIC for fluconazole/ITC-resistant Candida albicans ATCC MYA-1003; type: toxicity; details: mouse red blood cells (RBC), read-out: Selectivity Index
[46] = Selectivity index, ratio of compound concentration showing <25% hemolysis in mouse RBC to MIC for Candida glabrata ATCC 2001; type: toxicity; details: mouse red blood cells (RBC), read-out: Selectivity Index
[47] = Selectivity index, ratio of compound concentration showing <25% hemolysis in mouse RBC to MIC for Candida krusei ATCC 6258; type: toxicity; details: mouse red blood cells (RBC), read-out: Selectivity Index
[48] = Selectivity index, ratio of compound concentration showing <25% hemolysis in mouse RBC to MIC for Candida parapsilosis ATCC 22019; type: toxicity; details: mouse red blood cells (RBC), read-out: Selectivity Index
[49] = Selectivity index, ratio of compound concentration showing <25% hemolysis in mouse RBC to MIC for Aspergillus flavus ATCC MYA-3631; type: toxicity; details: mouse red blood cells (RBC), read-out: Selectivity Index
[50] = Selectivity index, ratio of compound concentration showing <25% hemolysis in mouse RBC to MIC for Aspergillus nidulans ATCC 38163; type: toxicity; details: mouse red blood cells (RBC), read-out: Selectivity Index
[51] = Selectivity index, ratio of compound concentration showing <25% hemolysis in mouse RBC to MIC for Aspergillus terreus ATCC MYA-3633; type: toxicity; details: mouse red blood cells (RBC), read-out: Selectivity Index

With `Fc1ccc(N/N=C/c2ccc(-c3cccc(/C=N/Nc4ccc(F)cc4F)c3)cc2)c(F)c1` the Activity [1] was “inactive”, the Activity [2] was “inactive” and the Activity [3] was “inactive”. The MIC [4] was 3.9 µg/mL (≈ 8.43 µM), the MIC [5] was 7.8 µg/mL (≈ 16.9 µM) and the MIC [6] was 15.6 µg/mL (≈ 33.7 µM). The MIC [7] was 15.6 µg/mL (≈ 33.7 µM), the MIC [8] was 15.6 µg/mL (≈ 33.7 µM) and the MIC [9] was 7.8 µg/mL (≈ 16.9 µM). The MIC [10] was 7.8 µg/mL (≈ 16.9 µM), the MIC [11] was 15.6 µg/mL (≈ 33.7 µM) and the MIC [12] was 1.95 µg/mL (≈ 4.22 µM). The MIC [13] was 31.3 µg/mL (≈ 67.7 µM), the MIC [14] was 7.8 µg/mL (≈ 16.9 µM) and the MIC [15] was 7.8 µg/mL (≈ 16.9 µM). The MIC [16] was 31.3 µg/mL (≈ 67.7 µM), the CC50 [17] was 16.4 µg/mL (≈ 35.5 µM) and the CC50 [18] was 16.9 µg/mL (≈ 36.5 µM). It also gave a selectivity ratio [19] of 4.2, a selectivity ratio [20] of 2.1 and a selectivity ratio [21] of 1.1. The selectivity ratio [22] was 1.1, the selectivity ratio [23] was 1.1 and the selectivity ratio [24] was 2.1. The selectivity ratio [25] was 2.1, the selectivity ratio [26] was 1.1 and the selectivity ratio [27] was 8.4. It also gave a selectivity ratio [28] of 0.5, a selectivity ratio [29] of 2.1 and a selectivity ratio [30] of 2.1. For the same compound, the selectivity ratio [31] was 0.5, the hemolysis at 1 h, […] [32] was 1.6% and the hemolysis at 1 h, 15.6 ug/ml ([33]; at 15.6 µg/mL) was 14.6%. For the same compound, the hemolysis at 1 h, 0.975 ug/ml [33] was 0%, the hemolysis at 1 h, 1.95 ug/ml [34] was 4.5% and the hemolysis at 1 h, 3.9 ug/ml [35] was 4.2%. The hemolysis at 1 h, 7.8 ug/ml [36] was 8.6%, the hemolysis at 1 h, 31.3 ug/ml [37] was 14.6% and the hemolysis at 1 h, 62.5 ug/ml [38] was 23.5%. For the same compound, the selectivity ratio [39] was 1 to 32, the selectivity ratio [40] was 1 to 32 and the selectivity ratio [41] was 1 to 32. For the same compound, the selectivity ratio [42] was 1 to 32, the selectivity ratio [43] was 1 to 32 and the selectivity ratio [44] was 1 to 32. It also gave a selectivity ratio [45] of 1 to 32, a selectivity ratio [46] of 1 to 32 and a selectivity ratio [47] of 1 to 32. For the same compound, the selectivity ratio [48] was 1 to 32, the selectivity ratio [49] was 1 to 32 and the selectivity ratio [50] was 1 to 32. For the same compound, the selectivity ratio [51] was 1 to 32.
